Patent US12714106B2 (Bayer Aktiengesellschaft, priority 2020, dated 2026)

Assays:
Type in all cases: in vivo
[1] = system: grass and broadleaf weeds; assay: Comparative testing of crystalline (I), (Ia), (Ib), summary of tables 3 to 6; conditions: (I) vs (Ia); (Ia) vs (Ib); see tables 3 to 6
Method: (§1) Seeds of grass and broadleaf weeds were sown in pots (diameter: 7 cm) filled with a sandy loam soil. Following germination the plants were grown under optimal conditions up to a growth stage of BBCH 11 to 14 depending on species.
(§2) The applications were performed by post emergence treatments on the planted pots using a spray volume of 300 L water per hectare. The herbicides were applied alone and in combination as described.
(§3) The trial was conducted in the greenhouse ensuring optimal growing conditions.
(§4) The herbicidal effects were assessed 21 days following application by visual ratings comparing treated and untreated plants (0%=no effect to 100%=complete die-off).
(§5) The compounds of the formula (Ia), (Ib) and (I) were formulated as WP (wettable powder) formulation.
(§6) The synergistic herbicidal activity was calculated using Colby's formula (cf. S. R. Colby; Weeds 15 (1967), 20-22): […]

[2] = system: ABUTH (Abutilon theophrasti); assay: Post-emergence greenhouse herbicide test, visual rating; conditions: post-emergence, 21 days after application
Method: as §1, §2, §3, §4, §5
(§7) • BBCH=the BBCH code provides information about the morphological development stage of a plant. Officially, the abbreviation denotes the Biologische Bundesanstalt, Bundessortenamt and Chemische Industrie [Federal Biological Institute for Agriculture and Forestry, Federal Office for Crop Plant Varieties and Chemical Industry]. The range of BBCH 00-10 denotes the germination stages of the seeds until surface penetration. The range of BBCH 11-25 denotes the leaf development stages until stocking (corresponding to the number of tillers or side-shoots). In the Trials, the Following Biotypes of Broad-Leaved Weeds and Weed Grasses were Used: • ALOMY—sensitive (Alopecurus myosuroides) sensitive to customary herbicidally active compounds. • ALOMY_R (resistant) (Alopecurus myosuroides) resistant to herbicidally active compounds of the HRAC groups A and B; population mixture of field origin having increased metabolic resistance (IMR) and some target site resistance (TSR). • LOLRI—sensitive (Lolium rigidum) sensitive to customary herbicidally active compounds. • LOLRI_R (resistant) (Lolium rigidum) resistant to herbicidally active compounds of the HRAC groups A and B; population mixture of field origin having increased metabolic resistance (IMR) and some target site resistance (TSR). • AMAPA_R (resistant) (Amaranthus palmeri) resistant to herbicidally active compounds of the HRAC groups A and B; population mixture of field origin having increased metabolic resistance (IMR) and some target site resistance (TSR). • CHRVI (Chloris virgate) feather finger grass • KCHSC (Kochia scoparia) Mexican burning bush • MATIN (Matricaria inodora) false chamomile • POLCO (Polygonum convolvulus) black knotweed • ABUTH (Abutilon theophrasti) china jute • AMAPA (Amaranthus palmeri) palmer amaranth • BIDPI (Bidens pilosa) common blackjack • CHEAL (Chenopodium album) common lambsquarters • EPHHL (Euphorbia heterophylla) wild spurge • XANST (Xanthium strumarium) large cocklebur • EMEAU (Emex australis)—Cathead • GALAP (Gallium aparine)—Cleaver
as §6

BID PI (Bidens pilosa) = assay: as above; conditions: 25 g/ha single isomer; post-emergence; 21 days after application
Method: as §1, §2, §3, §4, §5, §7, §6

[3] = system: LOLRI - sensitive (Lolium rigidum); assay: as above; conditions: post-emergence, 21 days after application
Method: as §1, §2, §3, §4, §5, §7, §6

[4] = system: POLCO (Polygonum convolvulus); assay: as above; conditions: 12.5 g/ha; post-emergence; 21 days after application
Method: as §1, §2, §3, §4, §5, §7, §6

KCHSC (Kochia scoparia) = assay: as above; conditions: 12.5 g/ha; post-emergence; 21 days after application
Method: as §1, §2, §3, §4, §5, §7, §6

[5] = system: CHEAL (Chenopodium album); assay: as above; conditions: 25 g/ha single isomer; post-emergence; 21 days after application
Method: as §1, §2, §3, §4, §5, §7, §6

GALAP (Gallium aparine) = assay: as above; conditions: 50 g/ha; post-emergence; 21 days after application
Method: as §1, §2, §3, §4, §5, §7, §6

[6] = system: LOLRI_R (resistant) (Lolium rigidum); assay: as above; conditions: post-emergence, 21 days after application
Method: as §1, §2, §3, §4, §5, §7, §6

[7] = system: XANST (Xanthium strumarium); assay: as above; conditions: post-emergence, 21 days after application
Method: as §1, §2, §3, §4, §5, §7, §6

EMEAU (Emex australis) = assay: as above; conditions: 50 g/ha; post-emergence; 21 days after application
Method: as §1, §2, §3, §4, §5, §7, §6

[8] = system: AMAPA-R (resistant) (Amaranthus palmeri); assay: as above; conditions: 25 g/ha single isomer; post-emergence; 21 days after application
Method: as §1, §2, §3, §4, §5, §7, §6

[9] = system: MATIN (Matricaria inodora); assay: as above; conditions: post-emergence, 21 days after application
Method: as §1, §2, §3, §4, §5, §7, §6

[10] = system: EPHHL (Euphorbia heterophylla); assay: as above; conditions: post-emergence, 21 days after application
Method: as §1, §2, §3, §4, §5, §7, §6

CHRVI (Chloris virgate) = assay: as above; conditions: 12.5 g/ha; post-emergence; 21 days after application
Method: as §1, §2, §3, §4, §5, §7, §6

C=C[C@]1(C(=O)N[C@H]2CO[C@@H](C(=O)OC)C2)CC(c2cc(F)cc(F)c2)=NO1 [(Ia), methyl(2R,4R)-4-[[(5S)-3-(3,5-difluorophenyl)-5-vinyl-4H-isoxazole-5-carbonyl]amino]-tetrahydrofuran-2-carboxylate]
herbicidal activity compared with the other crystalline forms [1]: superior in activity
ABUTH Observed ([2]; 25 g/ha single isomer): 45%
ABUTH Observed ([2]; 50 g/ha single isomer): 60%
BID PI Observed (BID PI (Bidens pilosa)): 30%
LOLRI Observed ([3]; 6.25 g/ha): 20%
LOLRI Observed ([3]; 12.5 g/ha): 90%
POLCO Observed [4]: 85%
KCHSC Observed (KCHSC (Kochia scoparia)): 70%
CHEAL Observed [5]: 70%
GALAP Observed (GALAP (Gallium aparine)): 75%
LOLRI_R Observed ([6]; 6.25 g/ha): 15%
LOLRI_R Observed ([6]; 12.5 g/ha): 20%
LOLRI_R Observed ([6]; 25 g/ha): 30%
XANST Observed ([7]; 25 g/ha single isomer): 0%
XANST Observed ([7]; 50 g/ha single isomer): 20%
XANST Observed ([7]; 100 g/ha single isomer): 20%
EMEAU Observed (EMEAU (Emex australis)): 80%
AMAPA-R Observed [8]: 35%
MATIN Observed ([9]; 12.5 g/ha): 0%
MATIN Observed ([9]; 25 g/ha): 0%
MATIN Observed ([9]; 50 g/ha): 0%
EPHHL Observed ([10]; 25 g/ha single isomer): 30%
EPHHL Observed ([10]; 50 g/ha single isomer): 35%
CHRVI Observed (CHRVI (Chloris virgate)): 35%
